Data published in the supplement of paper PMC10307832.

How the values were obtained:
Experiment in all cases: relative viability (nuclei count vs DMSO), 5 days (fraction); higher = more cells survive
[1] = system: CAL-12T
Summary of the method: (§1)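 Nuclei were stained with Hoechst during a one-step fixation (final 0.05% Triton X-100, 1% formaldehyde, 1 ug/ml Hoechst) carried out 5 days after dosing, then counted on 4× images. The cells, lung cancer lines in 1536-well plates, had been dosed by pin tool the day after seeding with one drug alone or a fixed anchor-drug dose plus five library-drug doses (not always all listed) in √10 steps. Relative viability is the nuclei count in treated wells divided by that in vehicle wells, and each value is the median of duplicate plates.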

[2] = system: NCI-H1651
Summary of the method: as §1

[3] = system: NCI-H1563
Summary of the method: as §1

[4] = system: H3255
Summary of the method: as §1

[5] = system: NCI-H1437
Summary of the method: as §1

[6] = system: NCI-H1650
Summary of the method: as §1

[7] = system: NCI-H2228
Summary of the method: as §1

[8] = system: NCI-H661
Summary of the method: as §1

[9] = system: ABC-1
Summary of the method: as §1

[10] = system: NCI-H322M
Summary of the method: as §1

[11] = system: NCI-H520
Summary of the method: as §1

[12] = system: SK-MES-1
Summary of the method: as §1

[13] = system: PC-3 [JPC-3]
Summary of the method: as §1

[14] = system: NCI-H2405
Summary of the method: as §1

[15] = system: COR-L23
Summary of the method: as §1

[16] = system: EKVX
Summary of the method: as §1

[17] = system: PC-14
Summary of the method: as §1

[18] = system: NCI-H1355
Summary of the method: as §1

[19] = system: LK-2
Summary of the method: as §1

[20] = system: HCC-15
Summary of the method: as §1

[21] = system: NCI-H1734
Summary of the method: as §1

[22] = system: RERF-LC-KJ
Summary of the method: as §1

[23] = system: SW 1573
Summary of the method: as §1

[24] = system: HCC-827
Summary of the method: as §1

`Clc1ccc(Nc2nnc(Cc3ccncc3)c3ccccc23)cc1` [Vatalanib] + Cc1nc(Nc2ncc(C(=O)Nc3c(C)cccc3Cl)s2)cc(N2CCN(CCO)CC2)n1 [Dasatinib] (partner 0.075 µM) showed a relative viability ([1]; first compound 0.04 µM) of 0.526, a relative viability ([1]; first compound 0.1265 µM) of 0.351 and a relative viability ([1]; first compound 0.4 µM) of 0.464. It also gave a relative viability ([1]; first compound 1.265 µM) of 0.28, a relative viability ([1]; first compound 4 µM) of 0.374 and a relative viability ([2]; first compound 0.04 µM) of 0.317. For the same compound, the relative viability ([2]; first compound 0.1265 µM) was 0.31, the relative viability ([2]; first compound 0.4 µM) was 0.421 and the relative viability ([2]; first compound 1.265 µM) was 0.462. For the same compound, the relative viability ([2]; first compound 4 µM) was 0.372, the relative viability ([3]; first compound 0.04 µM) was 0.45 and the relative viability ([3]; first compound 0.1265 µM) was 0.479. The relative viability ([3]; first compound 0.4 µM) was 0.428, the relative viability ([3]; first compound 1.265 µM) was 0.456 and the relative viability ([3]; first compound 4 µM) was 0.346. For the same compound, the relative viability ([4]; first compound 0.04 µM) was 0.316, the relative viability ([4]; first compound 0.1265 µM) was 0.385 and the relative viability ([4]; first compound 0.4 µM) was 0.311. For the same compound, the relative viability ([4]; first compound 1.265 µM) was 0.28, the relative viability ([4]; first compound 4 µM) was 0.335 and the relative viability ([5]; first compound 0.04 µM) was 0.399. For the same compound, the relative viability ([5]; first compound 0.1265 µM) was 0.41, the relative viability ([5]; first compound 0.4 µM) was 0.286 and the relative viability ([5]; first compound 1.265 µM) was 0.349. For the same compound, the relative viability ([5]; first compound 4 µM) was 0.417, the relative viability ([6]; first compound 0.04 µM) was 0.346 and the relative viability ([6]; first compound 0.1265 µM) was 0.275. The relative viability ([6]; first compound 0.4 µM) was 0.354, the relative viability ([6]; first compound 1.265 µM) was 0.217 and the relative viability ([6]; first compound 4 µM) was 0.289. The relative viability ([7]; first compound 0.04 µM) was 0.494, the relative viability ([7]; first compound 0.1265 µM) was 0.483 and the relative viability ([7]; first compound 0.4 µM) was 0.595. The relative viability ([7]; first compound 1.265 µM) was 0.482, the relative viability ([7]; first compound 4 µM) was 0.447 and the relative viability ([8]; first compound 0.04 µM) was 0.935. It also gave a relative viability ([8]; first compound 0.1265 µM) of 0.854, a relative viability ([8]; first compound 0.4 µM) of 1.06 and a relative viability ([8]; first compound 1.265 µM) of 0.853. It also gave a relative viability ([8]; first compound 4 µM) of 0.804, a relative viability ([9]; first compound 0.04 µM) of 0.722 and a relative viability ([9]; first compound 1.265 µM) of 0.514. The relative viability ([9]; first compound 4 µM) was 0.581, the relative viability ([10]; first compound 0.04 µM) was 0.248 and the relative viability ([10]; first compound 0.1265 µM) was 0.238. The relative viability ([10]; first compound 0.4 µM) was 0.256, the relative viability ([10]; first compound 1.265 µM) was 0.247 and the relative viability ([10]; first compound 4 µM) was 0.256. The relative viability ([11]; first compound 0.04 µM) was 0.205, the relative viability ([11]; first compound 0.1265 µM) was 0.202 and the relative viability ([11]; first compound 0.4 µM) was 0.218. It also gave a relative viability ([11]; first compound 1.265 µM) of 0.161, a relative viability ([11]; first compound 4 µM) of 0.126 and a relative viability ([12]; first compound 0.04 µM) of 0.346. For the same compound, the relative viability ([12]; first compound 0.1265 µM) was 0.439, the relative viability ([12]; first compound 0.4 µM) was 0.32 and the relative viability ([12]; first compound 1.265 µM) was 0.348. The relative viability ([12]; first compound 4 µM) was 0.34, the relative viability ([13]; first compound 0.04 µM) was 0.949 and the relative viability ([13]; first compound 0.1265 µM) was 0.982. For the same compound, the relative viability ([13]; first compound 0.4 µM) was 0.951, the relative viability ([13]; first compound 1.265 µM) was 0.913 and the relative viability ([13]; first compound 4 µM) was 0.891. For the same compound, the relative viability ([14]; first compound 0.04 µM) was 0.226, the relative viability ([14]; first compound 0.1265 µM) was 0.195 and the relative viability ([14]; first compound 1.265 µM) was 0.197. The relative viability ([14]; first compound 4 µM) was 0.203, the relative viability ([15]; first compound 0.04 µM) was 0.502 and the relative viability ([15]; first compound 0.1265 µM) was 0.502. It also gave a relative viability ([15]; first compound 0.4 µM) of 0.651, a relative viability ([15]; first compound 1.265 µM) of 0.414 and a relative viability ([15]; first compound 4 µM) of 0.519. The relative viability ([16]; first compound 0.04 µM) was 0.651, the relative viability ([16]; first compound 0.1265 µM) was 0.5 and the relative viability ([16]; first compound 0.4 µM) was 0.585. It also gave a relative viability ([16]; first compound 1.265 µM) of 0.397, a relative viability ([16]; first compound 4 µM) of 0.4 and a relative viability ([17]; first compound 0.04 µM) of 0.318. The relative viability ([17]; first compound 0.1265 µM) was 0.248, the relative viability ([17]; first compound 0.4 µM) was 0.34 and the relative viability ([17]; first compound 1.265 µM) was 0.244. For the same compound, the relative viability ([17]; first compound 4 µM) was 0.245, the relative viability ([18]; first compound 0.04 µM) was 0.75 and the relative viability ([18]; first compound 0.1265 µM) was 0.728. The relative viability ([18]; first compound 0.4 µM) was 0.778, the relative viability ([18]; first compound 1.265 µM) was 0.603 and the relative viability ([18]; first compound 4 µM) was 0.633. For the same compound, the relative viability ([19]; first compound 0.04 µM) was 0.322, the relative viability ([19]; first compound 0.1265 µM) was 0.219 and the relative viability ([19]; first compound 0.4 µM) was 0.244. The relative viability ([19]; first compound 1.265 µM) was 0.27, the relative viability ([19]; first compound 4 µM) was 0.294 and the relative viability ([20]; first compound 0.04 µM) was 0.611. It also gave a relative viability ([20]; first compound 0.1265 µM) of 0.628, a relative viability ([20]; first compound 0.4 µM) of 0.628 and a relative viability ([20]; first compound 1.265 µM) of 0.524. The relative viability ([20]; first compound 4 µM) was 0.538, the relative viability ([21]; first compound 0.04 µM) was 0.512 and the relative viability ([21]; first compound 0.1265 µM) was 0.432. It also gave a relative viability ([21]; first compound 0.4 µM) of 0.501, a relative viability ([21]; first compound 1.265 µM) of 0.47 and a relative viability ([21]; first compound 4 µM) of 0.422. For the same compound, the relative viability ([22]; first compound 0.04 µM) was 0.851, the relative viability ([22]; first compound 0.1265 µM) was 0.828 and the relative viability ([22]; first compound 0.4 µM) was 0.809. For the same compound, the relative viability ([22]; first compound 1.265 µM) was 0.623, the relative viability ([22]; first compound 4 µM) was 0.593 and the relative viability ([23]; first compound 0.04 µM) was 0.73. It also gave a relative viability ([23]; first compound 0.1265 µM) of 0.496, a relative viability ([23]; first compound 0.4 µM) of 0.645 and a relative viability ([23]; first compound 1.265 µM) of 0.395. It also gave a relative viability ([23]; first compound 4 µM) of 0.476, a relative viability ([24]; first compound 0.04 µM) of 0.375 and a relative viability ([24]; first compound 0.1265 µM) of 0.31. It also gave a relative viability ([24]; first compound 0.4 µM) of 0.166, a relative viability ([24]; first compound 1.265 µM) of 0.326 and a relative viability ([24]; first compound 4 µM) of 0.275.
